Reference: patent publication US6287840A (Axys Pharmaceuticals, Inc., priority 1999, dated 2001)
Like-named read-outs stand apart in the source and are kept apart here.

Experiments:
[1] = Stability of selected inhibitors toward glutathione (Ellmans reagent); format: physicochemical
Experimental: The inhibitors (5 mM) were incubated with glutathione (GSH) (0.3 mM) in phosphate buffer (50 mM) at pH=6.2 containing 15% DMF at 20° C. Periodically, 50 μL samples were added to 1 mL of buffer and treated with 10 μL of 30 mM Ellmans reagent and the absorbance measured at 412 nm.

[2] = target: T1, Cathepsin B from human placenta (Homo sapiens, UniProt P07858); test: Inhibition of cathepsin B, Z-Arg-Arg-AMC fluorescence progress curves; format: biochemical; details: for Ki: corrected for substrate; for k/KI (kirr/KI): values without asterisk
T1 construct: Cathepsin B from human placenta, obtained from Sigma; purchased Sigma; host or cells: human placenta (tissue)
How it was run: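 Human placental enzyme (~10 nM) in 50 mM phosphate pH 6.2 with 2.5 mM DTT and 2.5 mM EDTA, 50 μM Z-Arg-Arg-AMC, inhibitors 30-0.001 μM, 25° C. AMC fluorescence (ex 380/em 460 nm) progress curves fitted for kobs; kobs/[I] reported, with kirr, KI and kirr/KI substrate-corrected for selected compounds.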

[3] = target: T2, Cathepsin L from rat liver (Rattus norvegicus, UniProt P07154); test: Inhibition of cathepsin L, Z-Phe-Arg-AMC fluorescence progress curves; format: biochemical; details: for Ki: corrected for substrate; for k/KI (kirr/KI): values without asterisk; for k/KI (kirr/KI) / kobs /[I]* (approximate second-order inactivation constant): 25° C., pH 6.2; for kobs /[I]* (approximate second-order inactivation constant): values marked *
T2 construct: Cathepsin L from rat liver; from tissue; host or cells: rat liver
T2 sequence (P07154 114-288 limits assumed): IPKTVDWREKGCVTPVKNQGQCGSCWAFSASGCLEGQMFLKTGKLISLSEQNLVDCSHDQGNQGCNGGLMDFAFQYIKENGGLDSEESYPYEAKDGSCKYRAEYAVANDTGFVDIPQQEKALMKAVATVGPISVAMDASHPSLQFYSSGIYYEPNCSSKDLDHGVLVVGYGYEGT
T2 sequence (P07154 291-334 limits assumed): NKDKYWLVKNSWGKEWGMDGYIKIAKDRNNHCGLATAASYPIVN
How it was run: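 Progress curves of AMC release (380/460 nm) over at least 3 inactivation half-times were fitted to kobs, reported as kobs/[I] or, via 1/[I] vs 1/kobs, kirr, KI (substrate-corrected) and kirr/KI.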

[4] = test system: human malarial parasite Plasmodium falciparum; test: In vitro protease activity of malarial parasite, substrate Z-Phe-Arg-AMC; format: biochemical; details: read-out: P. falciparum IC50 (human)
Description: (§1) The following table summarizes the comparative IC50 values for selected cysteine protease inhibitors against the human malarial parasite Plasmodium falciparum and the mouse malarial parasite Plasmodium vinckei. The substrate used to measure in vitro protease activity was Z-Phe-Arg-AMC.

[5] = test system: mouse malarial parasite Plasmodium vinckei; test: as above; format: biochemical; details: read-out: P. vinckei IC50 (murine)
Description: as §1

[6] = test system: Trypanosoma brucei extracellular bloodstream forms; test: In vitro antiprotozoal activity, Trypanosoma brucei; format: cell-based
Experimental: (§2) In this table, the in vitro antiprotozoal activities of the indicated compounds were measured as percentage inhibition of Leishmania donovani amastigote infecteda mouse peritoneal macrophages, Trypanosoma cruzi amastigote infected macrophages, and Trypanosoma brucei extracellular bloodstream forms.

Cloned cathepsin S = target: T3, Cloned cathepsin S (Homo sapiens, UniProt P25774); test: Inhibition of cathepsin S, Z-Val-Val-Arg-AMC fluorescence progress curves; format: biochemical; details: for Ki: corrected for substrate; for k/KI (kirr/KI): values without asterisk; for k/KI (kirr/KI) / kobs /[I]* (approximate second-order inactivation constant): 25° C., pH 6.5; for kobs /[I]* (approximate second-order inactivation constant): values marked *
T3 construct: made in house
T3 sequence (P25774 115-331): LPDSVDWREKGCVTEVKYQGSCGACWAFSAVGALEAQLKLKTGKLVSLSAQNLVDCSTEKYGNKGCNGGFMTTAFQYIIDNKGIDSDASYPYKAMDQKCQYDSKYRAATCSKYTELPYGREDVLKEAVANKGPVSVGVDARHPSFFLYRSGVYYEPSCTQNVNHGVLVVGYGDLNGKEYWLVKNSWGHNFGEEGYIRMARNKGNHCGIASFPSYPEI
How it was run: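 Progress curves at 25 °C in 100 mM phosphate pH 6.5, 2.5 mM DTT, 2.5 mM EDTA, 0.01% Triton, enzyme <1 nM, 10 μM substrate, inhibitors 30-0.001 μM; AMC fluorescence ex 380/em 460 nm. kobs from nonlinear fits gave kobs/[I]; selected compounds yielded kirr, KI (substrate-corrected), kirr/KI.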

[7] = test system: Leishmania donovani amastigote infected mouse peritoneal macrophages; test: In vitro antiprotozoal activity, Leishmania donovani; format: cell-based; set-up: key to percentage inhibition, L. donovani: the term "T" indicates the molecule to have displayed cytotoxicity
Experimental: as §2

T. cruzi = T. cruzi infected irradiated J774 cells; format: cell-based; set-up: dose or concentration left out as unconfirmed; details: thereafter without inhibitor; compounds listed in decreasing order of effectiveness
Experimental: Irradiated J774 cells were infected with T. cruzi and simultaneously treated with […] of peptidyl vinyl derivatives for 5 days; thereafter without inhibitor. The following compounds were effective in decreasing order: Mu-Phe-ArgVSPh, Boc-Tyr(I2)-HphVSPh, Mu-Phe-VaIVSPh, Boc-Tic-HphVSPh, Mu-Phe-Ser(OBzl)VSPh, Mu-Leu-HphVSPh, Mu-Tyr(I2)-HphVSPh, Mu-Phe-LysVSPh, Mu-Tic-HphVSPh.

calpain = test: Inhibition (inactivation) of calpain, Suc-Leu-Tyr-AMC; format: biochemical; details: pH 7.5, 5 mM CaCl2, 25° C.; for kobs /[I]*: values marked * (or %); for k/KI (kirr/KI): values without asterisk
Experimental: The inhibitors were tested against calpain at 1 or 2% as for the other enzymes. The reaction conditions were 50 mM Tris, pH 7.5, 5 mM CaCl2, 2.5 mM DTT, assayed at 25° C. The substrate was 100 μM Suc-Leu-Tyr-AMC.

[8] = test system: Trypanosoma cruzi amastigote infected macrophages; test: In vitro antiprotozoal activity, Trypanosoma cruzi; format: cell-based
Experimental: as §2

cruzain, from T. cruzi = cruzain, from T. cruzi (Trypanosoma cruzi, UniProt P25779); test: Inhibition of cruzain, as for cathepsin L; format: biochemical; details: for k/KI (kirr/KI): values without asterisk; for kobs /[I]* (approximate second-order inactivation constant): values marked *
Chain of cruzain, from T. cruzi (P25779 123-337 limits assumed): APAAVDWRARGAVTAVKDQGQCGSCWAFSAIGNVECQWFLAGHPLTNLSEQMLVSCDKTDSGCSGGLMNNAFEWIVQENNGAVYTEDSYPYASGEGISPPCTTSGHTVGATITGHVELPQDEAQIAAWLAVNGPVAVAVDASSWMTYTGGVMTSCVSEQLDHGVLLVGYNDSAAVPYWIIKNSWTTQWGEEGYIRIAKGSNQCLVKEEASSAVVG
How it was run: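 Run as for cathepsin L with 1 nM cruzain in 50 mM phosphate pH […], 2.5 mM DTT, 2.5 mM EDTA, 5 μM Z-Phe-Arg-AMC, at 25 °C, inhibitors 30-0.001 μM; fluorescence (ex 380/em 460 nm) followed continuously. kobs fitted from progress curves and kobs/[I] reported; selected compounds gave kirr, KI, kirr/KI, with KI corrected by (1+[S]/Km).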

Row | Compound | kirr [2] [s⁻¹] | Ki [2] [µM] | k/KI (kirr/KI) ([2]; 25° C., pH 6.2) | kirr [3] [s⁻¹] | Ki [3] [µM] | k/KI (kirr/KI) [3] | IC50 ([5]; cells printed in nM) [nM] | percentage inhibition, T. brucei ([6]; 3 uM) [%] | percentage inhibition, T. brucei ([6]; 10 uM) [%] | percentage inhibition, T. brucei ([6]; 30 uM) [%] | percentage inhibition, T. brucei ([6]; 90 uM) [%] | kirr (Cloned cathepsin S) [s⁻¹] | Ki (Cloned cathepsin S) [nM] | k/KI (kirr/KI) (Cloned cathepsin S) | percentage inhibition, L. donovani ([7]; 3 uM) [%] | percentage inhibition, L. donovani ([7]; 10 uM) [%] | percentage inhibition, L. donovani ([7]; 30 uM) [%] | percentage inhibition, L. donovani ([7]; 90 uM) | effectiveness against T. cruzi in J774 cells (T. cruzi) | k/KI (kirr/KI) (cruzain, from T. cruzi) | other results
1 | Br.CCOC(=O)/C=C/[C@H](CCCNC(=N)N)NC(=O)[C@H](Cc1ccccc1)NC(=O)N1CCOCC1 [Mu-Phe-ArgVEOEt.HBr, ethyl (S)-(E)-7-guanidino-4-(4-morpholinecarbonylphenylalanyl)amino-2-heptenoatehydrobromide] | 0.16 | 19 | 8200 M⁻¹ s⁻¹ | 0.18 | 3.1 | 56,900 M^-1 sec^-1 | 200 |  |  |  |  |  |  |  |  |  |  |  |  |  | second order rate constant for the loss of GSH ([1]; inhibitor 5 mM, GSH 0.3 mM, pH=6.2, 20° C.): 0.0053 M⁻¹ s⁻¹; times more reactive with GSH ([1]; relative to Mu-Phe-LysVSPh): 10 times; IC50 ([4]; cells printed in nM): 300 nM
2 | Br.N=C(N)NCCC[C@@H](/C=C/S(=O)(=O)c1ccccc1)NC(=O)[C@H](Cc1ccccc1)NC(=O)N1CCOCC1 [Mu-Phe-ArgVSPh.HBr, (S)-(E)-3-(4-morpholinecarbonylphenylalanyl)amino-6-guanidino-1-phenylsulfonyl-1-hexene hydrobromide] | 0.15 | 12 | 12,300 M^-1 sec^-1 | 0.67 | 1.9 | 349,000 M^-1 sec^-1 | 50 | 0 | 0 | 0 | 0 | 0.031 | 16 | 2,000,000 M^-1 sec^-1 | 0 | 0 | 0 | 1.3% | effective | 91,400 M^-1 sec^-1 | kobs /[I]* (calpain): < 50 M⁻¹ s⁻¹; percentage inhibition, T. cruzi ([8]; 3 uM): 0%; percentage inhibition, T. cruzi ([8]; 10 uM): 0%; percentage inhibition, T. cruzi ([8]; 30 uM): 0%; percentage inhibition, T. cruzi ([8]; 90 uM): 5.8%; IC50 ([4]; cells printed in nM): 50 nM
3 | CCOP(=O)(C/C=C/[C@H](CCc1ccccc1)NC(=O)[C@H](Cc1ccccc1)NC(=O)N1CCOCC1)OCC [Mu-Phe-HphVPEt, diethyl (S)-(E)-4-(4-morpholinecarbonylphenylalanyl)amino-6-phenyl-2-hexenephosphonate] |  |  |  | 0.16 | 39 | 4100 M⁻¹ s⁻¹ |  |  |  |  |  | 0.40 | 36000 | 11,200 M^-1 sec^-1 |  |  |  |  |  |  | reaction with GSH ([1]; after 24 hours, inhibitor 5 mM, GSH 0.3 mM, pH=6.2, 15% DMF, 20° C.): no measurable reaction
4 | (S)-(E)-3-(4-morpholinecarbonylphenylalanyl)amino-4-benzyloxy-1-phenylsulfonyl-1-butene [Mu-Phe-Ser(OBzl)VSPh] | 0.14 | 47 | 2900 M⁻¹ s⁻¹ | 0.20 | 4.6 | 42,700 M^-1 sec^-1 | 500 | 11.5 | 93.3 | 1.00 | 100 | 0.092 | 74 | 1,240,000 M^-1 sec^-1 | 100 | 100 | 100 | T | effective | 12,800 M^-1 sec^-1 | percentage inhibition, T. brucei ([6]; 1 uM): 5.2%; kobs /[I]* (calpain): < 50 M⁻¹ s⁻¹; percentage inhibition, T. cruzi ([8]; 3 uM): 5.2%; percentage inhibition, T. cruzi ([8]; 10 uM): 15.7%; percentage inhibition, T. cruzi ([8]; 30 uM): 15.1%; percentage inhibition, T. cruzi ([8]; 90 uM): 50.7%; IC50 ([4]; cells printed in μM): 1000 nM
5 | (S)-(E)-3-(4-morpholinecarbonylphenylalanyl)amino-4-methyl-1-phenylsulfonyl-1-pentene [Mu-Phe-ValVSPh] |  |  |  | 0.19 | 2.6 | 74,000 M^-1 sec^-1 |  | 13.5 | 35.4 | 72.7 | 100 | 0.039 | 130 | 290,000 M^-1 sec^-1 | 100 | 100 | 100 | T | effective |  | ED50, T. brucei [6]: 13.85 µM; percentage inhibition, T. brucei ([6]; 1 uM): 11.9%; kobs /[I]* (calpain): 180 M⁻¹ s⁻¹; ED50, T. cruzi [8]: 61.88 µM; percentage inhibition, T. cruzi ([8]; 3 uM): 5.5%; percentage inhibition, T. cruzi ([8]; 10 uM): 6.2%; percentage inhibition, T. cruzi ([8]; 30 uM): 18.9%; percentage inhibition, T. cruzi ([8]; 90 uM): 74.2%; IC50 ([4]; cells printed in μM): 1000 nM; IC50 ([5]; cells printed in μM): 1000 nM; kobs /[I]* (approximate second-order inactivation constant) (cruzain, from T. cruzi): 28,000 M^-1 sec^-1
6 | (S)-(E)-3-[4-tert-butoxycarbonyl-(3,5-diiodotyrosyl)]-amino-5-phenyl-1-phenylsulfonyl-1-pentene [Boc-Tyr(I2)-HphVSPh] |  |  |  |  |  |  |  |  |  |  |  |  |  |  |  |  |  |  | effective |  | kobs /[I]* (approximate second-order inactivation constant) (Cloned cathepsin S): 210,000 M^-1 sec^-1; k/KI (kirr/KI) (calpain): 0 M⁻¹ s⁻¹; kobs /[I]* (approximate second-order inactivation constant) ([2]; values marked *, 25° C., pH 6.2): 1400 M⁻¹ s⁻¹; kobs /[I]* (approximate second-order inactivation constant) [3]: 105,000 M^-1 sec^-1; kobs /[I]* (approximate second-order inactivation constant) (cruzain, from T. cruzi): 280,000 M^-1 sec^-1
7 | (S,S)-(E)-3-[4-morpholinecarbonyl-(1,2,3,4-tetrahydro-3-isoquinoline-carbonyl)]amino-5-phenyl-1-phenylsulfonyl-1-pentene [Mu-Tic-HphVSPh] |  |  | 0 M⁻¹ s⁻¹ |  |  |  |  |  |  |  |  |  |  |  |  |  |  |  | effective | 0 M⁻¹ s⁻¹ | kobs /[I]* (approximate second-order inactivation constant) (Cloned cathepsin S): 630,000 M^-1 sec^-1; k/KI (kirr/KI) (calpain): 0 M⁻¹ s⁻¹; kobs /[I]* (approximate second-order inactivation constant) [3]: 12,600 M^-1 sec^-1
8 | (S,S)-(E)-3-[tert-butoxycarbonyl-(1,2,3,4-tetrahydro-3-isoquinolinecarbonyl)]-amino-5-phenyl-1-phenylsulfonyl-1-pentene [Boc-Tic-HphVSPh] |  |  |  |  |  | 0 M⁻¹ s⁻¹ |  |  |  |  |  |  |  | 0 M⁻¹ s⁻¹ |  |  |  |  | effective | 30,000 M^-1 sec^-1 | k/KI (kirr/KI) (calpain): 0 M⁻¹ s⁻¹
